Patent publication US4808711A, “Cephalosporin derivatives” (Sankei Pharmaceutical Co., Ltd., priority 1985, dated 1989)
In brackets after ≈: the same amount, converted by molar mass. Like-named read-outs stand apart in the source and are kept apart here.

Key:
Type in all cases: cell-based
E. cloacae ATCC13047 = test: MIC, E. cloacae ATCC13047; conditions: Enterobacter cloacae
Procedure: (§1) The minimum inhibition concentrations (MIC) of the compounds obtained by the present invention were measured according to the standard method of Japanese Chemotherapy Association.

E. coli ATCC25922 = test: MIC, E. coli ATCC25922
Procedure: as §1

P. maltophilia ATCC13637 = test: MIC, P. maltophilia ATCC13637; conditions: Stenotrophomonas maltophilia
Procedure: as §1

S. newport 563 = test: MIC, S. newport 563
Procedure: as §1

S. boyadii CDC 2064-59 = test: MIC, S. boyadii CDC 2064-59
Procedure: as §1

P. putida ATCC12633 = test: MIC, P. putida ATCC12633; conditions: Pseudomonas putida
Procedure: as §1

S. dysenteriae 4379-60 = test: MIC, S. dysenteriae 4379-60
Procedure: as §1

K. pneumoniae ATCC27736 = test: MIC, K. pneumoniae ATCC27736
Procedure: as §1

P. vulgaris ATCC6398 = test: MIC, P. vulgaris ATCC6398
Procedure: as §1

S. aureus ATCC25923 = test: MIC, S. aureus ATCC25923; conditions: Staphylococcus aureus
Procedure: as §1

S. typhi 1099-77 = test: MIC, S. typhi 1099-77
Procedure: as §1

S. paratyphi A 144-12-93 = test: MIC, S. paratyphi A 144-12-93
Procedure: as §1

S. paratyphi C 33-76 = test: MIC, S. paratyphi C 33-76
Procedure: as §1

S. epidermidis ATCC14990 = test: MIC, S. epidermidis ATCC14990
Procedure: as §1

S. faecalis IFO3826 = test: MIC, S. faecalis IFO3826
Procedure: as §1

S. aureus 209P JC-1 = test: MIC, S. aureus 209P JC-1
Procedure: as §1

E. coli NIHJ JC-2 = test: MIC, E. coli NIHJ JC-2
Procedure: as §1

S. typhimurium ATCC13311 = test: MIC, S. typhimurium ATCC13311
Procedure: as §1

P. rettgeri ATCC14505 = test: MIC, P. rettgeri ATCC14505
Procedure: as §1

S. aureus Smith = test: MIC, S. aureus Smith
Procedure: as §1

S. paratyphi B = test: MIC, S. paratyphi B
Procedure: as §1

S. aureus TASAKI = test: MIC, S. aureus TASAKI; conditions: Staphylococcus aureus
Procedure: as §1

P. vulgaris ATCC6380 = test: MIC, P. vulgaris ATCC6380
Procedure: as §1

S. sonnei SH72-415 = test: MIC, S. sonnei SH72-415
Procedure: as §1

P. fluorescens ATCC13525 = test: MIC, P. fluorescens ATCC13525
Procedure: as §1

S. marcescens IFO12648 = test: MIC, S. marcescens IFO12648
Procedure: as §1

P. cepacia ATCC25416 = test: MIC, P. cepacia ATCC25416
Procedure: as §1

P. mirabilis IFO3849 = test: MIC, P. mirabilis IFO3849
Procedure: as §1

S. anatum 677-69 = test: MIC, S. anatum 677-69
Procedure: as §1

B. subtilis ATCC6633 = test: MIC, B. subtilis ATCC6633
Procedure: as §1

P. aeruginosa ATCC9721 = test: MIC, P. aeruginosa ATCC9721; conditions: Pseudomonas aeruginosa
Procedure: as §1

[1] = test system: S. flexneri 2a CDC 4807-62; test: MIC, S. flexneri 2a CDC 4807-62
Procedure: as §1

S. flexneri Y NCTC 9730 = test: MIC, S. flexneri Y NCTC 9730
Procedure: as §1

C. freundii IFO12681 = test: MIC, C. freundii IFO12681
Procedure: as §1

S. typhimurium IFO 12529 = test: MIC, S. typhimurium IFO 12529
Procedure: as §1

[2] = Escherichia coli, read-out: MIC
[3] = Salmonella enterica, read-out: MIC
[4] = Klebsiella pneumoniae, read-out: MIC
[5] = Proteus vulgaris, read-out: MIC
[6] = Staphylococcus epidermidis, read-out: MIC
[7] = Enterococcus faecalis, read-out: MIC
[8] = Escherichia coli, NIHJJC2, read-out: MIC
[9] = Providencia rettgeri, read-out: MIC
[10] = Staphylococcus aureus, read-out: MIC
[11] = Shigella sonnei, SH72415, read-out: MIC
[12] = Serratia marcescens, read-out: MIC
[13] = Burkholderia cepacia, read-out: MIC
[14] = Proteus mirabilis, read-out: MIC
[15] = Salmonella enterica, 67769, read-out: MIC
[16] = Shigella flexneri, read-out: MIC
[17] = Shigella flexneri, NCTC9730, read-out: MIC
[18] = Citrobacter freundii, read-out: MIC

Compound: Cc1nnc(SCC2=C(C(=O)O)N3C(=O)C(NC(=O)C(=NOCC(=O)NNC(=O)c4ccc(O)c(O)c4)c4csc(N)n4)C3SC2)s1 (stereo not shown) [Example 59]
- MIC (E. cloacae ATCC13047): 1.56 µg/mL (≈ 2.16 µM)
- MIC (E. coli ATCC25922; [2]): 0.1 µg/mL (≈ 0.139 µM)
- MIC (P. maltophilia ATCC13637): 0.78 µg/mL (≈ 1.08 µM)
- MIC (S. newport 563; [3]): 0.05 µg/mL (≈ 0.0693 µM)
- MIC (S. boyadii CDC 2064-59): 0.39 µg/mL (≈ 0.54 µM)
- MIC (P. putida ATCC12633): 0.78 µg/mL (≈ 1.08 µM)
- MIC (S. dysenteriae 4379-60; Shigella dysenteriae, 437960): 0.05 µg/mL (≈ 0.0693 µM)
- MIC (K. pneumoniae ATCC27736; [4]): 0.012 µg/mL (≈ 0.0166 µM)
- MIC (P. vulgaris ATCC6398; [5]): 0.05 µg/mL (≈ 0.0693 µM)
- MIC (S. aureus ATCC25923; S. aureus ATCC25923, read-out: MIC): 0.78 µg/mL (≈ 1.08 µM)
- MIC (S. typhi 1099-77; Salmonella enterica, TYPHI): ≤ 0.006 µg/mL
- MIC (S. paratyphi A 144-12-93; Salmonella enterica, PARATYPHI): 0.025 µg/mL (≈ 0.0346 µM)
- MIC (S. paratyphi C 33-76; Salmonella enterica, PARATYPHI): 0.012 µg/mL (≈ 0.0166 µM)
- MIC (S. epidermidis ATCC14990; [6]): 0.39 µg/mL (≈ 0.54 µM)
- MIC (S. faecalis IFO3826; [7]): > 100 µg/mL
- MIC (S. aureus 209P JC-1; Staphylococcus aureus, S. aureus 209P JC-1, read-out: MIC): 0.39 µg/mL (≈ 0.54 µM)
- MIC (E. coli NIHJ JC-2; [8]): 0.39 µg/mL (≈ 0.54 µM)
- MIC (S. typhimurium ATCC13311; [3]): 0.1 µg/mL (≈ 0.139 µM)
- MIC (P. rettgeri ATCC14505; [9]): 0.78 µg/mL (≈ 1.08 µM)
- MIC (S. aureus Smith; [10]): 0.78 µg/mL (≈ 1.08 µM)
- MIC (S. paratyphi B; Salmonella enterica, PARATYPHI): 0.012 µg/mL (≈ 0.0166 µM)
- MIC (S. aureus TASAKI; S. aureus TASAKI, standard method of Japanese Chemotherapy Association, read-out: MIC): 1.56 µg/mL (≈ 2.16 µM)
- MIC (P. vulgaris ATCC6380; [5]): 0.39 µg/mL (≈ 0.54 µM)
- MIC (S. sonnei SH72-415; [11]): 0.05 µg/mL (≈ 0.0693 µM)
- MIC (P. fluorescens ATCC13525; Pseudomonas fluorescens, read-out: MIC): 12.5 µg/mL (≈ 17.3 µM)
- MIC (S. marcescens IFO12648; [12]): 0.39 µg/mL (≈ 0.54 µM)
- MIC (P. cepacia ATCC25416; [13]): 0.39 µg/mL (≈ 0.54 µM)
- MIC (P. mirabilis IFO3849; [14]): 0.39 µg/mL (≈ 0.54 µM)
- MIC (S. anatum 677-69; [15]): 0.025 µg/mL (≈ 0.0346 µM)
- MIC (B. subtilis ATCC6633; Bacillus subtilis, B. subtilis ATCC6633, read-out: MIC): 0.39 µg/mL (≈ 0.54 µM)
- MIC (P. aeruginosa ATCC9721; P. aeruginosa ATCC9721, read-out: MIC): 0.1 µg/mL (≈ 0.139 µM)
- MIC [1, 16]: 0.2 µg/mL (≈ 0.277 µM)
- MIC (S. flexneri Y NCTC 9730; [17]): 0.78 µg/mL (≈ 1.08 µM)
- MIC (C. freundii IFO12681; [18]): 0.78 µg/mL (≈ 1.08 µM)
- MIC (S. typhimurium IFO 12529; [3]): 0.1 µg/mL (≈ 0.139 µM)

Compound: CO[C@@]1(NC(=O)C(C(=O)O)c2ccc(O)cc2)C(=O)N2C(C(=O)O)=C(CSc3nnnn3C)CO[C@@H]21 (stereo partly shown) [LMOX, latamoxiceph]
- MIC (E. cloacae ATCC13047): 0.78 µg/mL (≈ 1.5 µM)
- MIC (E. coli ATCC25922; [2]): 0.2 µg/mL (≈ 0.384 µM)
- MIC (P. maltophilia ATCC13637): 25 µg/mL (≈ 48 µM)
- MIC (S. newport 563; [3]): 0.1 µg/mL (≈ 0.192 µM)
- MIC (S. boyadii CDC 2064-59): 3.13 µg/mL (≈ 6.01 µM)
- MIC (P. putida ATCC12633): 25 µg/mL (≈ 48 µM)
- MIC (S. dysenteriae 4379-60; Shigella dysenteriae, 437960): 0.05 µg/mL (≈ 0.0961 µM)
- MIC (K. pneumoniae ATCC27736; [4]): 0.05 µg/mL (≈ 0.0961 µM)
- MIC (P. vulgaris ATCC6398; [5]): 0.2 µg/mL (≈ 0.384 µM)
- MIC (S. aureus ATCC25923; ATCC25923): 3.13 µg/mL (≈ 6.01 µM)
- MIC (S. typhi 1099-77; Salmonella enterica, TYPHI): 0.05 µg/mL (≈ 0.0961 µM)
- MIC (S. paratyphi A 144-12-93; Salmonella enterica, PARATYPHI): 0.2 µg/mL (≈ 0.384 µM)
- MIC (S. paratyphi C 33-76; Salmonella enterica, PARATYPHI): 0.025 µg/mL (≈ 0.048 µM)
- MIC (S. epidermidis ATCC14990; [6]): 6.25 µg/mL (≈ 12 µM)
- MIC (S. faecalis IFO3826; [7]): > 100 µg/mL
- MIC (S. aureus 209P JC-1; Staphylococcus aureus, 209P): 3.13 µg/mL (≈ 6.01 µM)
- MIC (E. coli NIHJ JC-2; [8]): 0.2 µg/mL (≈ 0.384 µM)
- MIC (S. typhimurium ATCC13311; [3]): 0.05 µg/mL (≈ 0.0961 µM)
- MIC (P. rettgeri ATCC14505; [9]): 0.1 µg/mL (≈ 0.192 µM)
- MIC (S. aureus Smith; [10]): 6.25 µg/mL (≈ 12 µM)
- MIC (S. paratyphi B; Salmonella enterica, PARATYPHI): 0.05 µg/mL (≈ 0.0961 µM)
- MIC (S. aureus TASAKI): 3.13 µg/mL (≈ 6.01 µM)
- MIC (P. vulgaris ATCC6380; [5]): 0.2 µg/mL (≈ 0.384 µM)
- MIC (S. sonnei SH72-415; [11]): 0.1 µg/mL (≈ 0.192 µM)
- MIC (S. marcescens IFO12648; [12]): 0.2 µg/mL (≈ 0.384 µM)
- MIC (P. cepacia ATCC25416; [13]): 6.25 µg/mL (≈ 12 µM)
- MIC (P. mirabilis IFO3849; [14]): 0.1 µg/mL (≈ 0.192 µM)
- MIC (S. anatum 677-69; [15]): 0.1 µg/mL (≈ 0.192 µM)
- MIC (B. subtilis ATCC6633; Bacillus subtilis, ATCC6633): 3.13 µg/mL (≈ 6.01 µM)
- MIC (P. aeruginosa ATCC9721; ATCC9721): 3.13 µg/mL (≈ 6.01 µM)
- MIC [1, 16]: 0.1 µg/mL (≈ 0.192 µM)
- MIC (S. flexneri Y NCTC 9730; [17]): 3.13 µg/mL (≈ 6.01 µM)
- MIC (C. freundii IFO12681; [18]): 0.1 µg/mL (≈ 0.192 µM)
- MIC (S. typhimurium IFO 12529; [3]): 0.1 µg/mL (≈ 0.192 µM)

Compound: cephazoline [CAZ]
- MIC (E. coli ATCC25922): 0.39 µg/mL
- MIC (S. newport 563): 0.78 µg/mL
- MIC (S. dysenteriae 4379-60; S. dysenteriae 4379-60): 0.2 µg/mL
- MIC (K. pneumoniae ATCC27736): 0.78 µg/mL
- MIC (P. vulgaris ATCC6398): 0.1 µg/mL
- MIC (S. typhi 1099-77; S. typhi 1099-77): 0.39 µg/mL
- MIC (S. paratyphi A 144-12-93; S. paratyphi A 144-12-93): 1.56 µg/mL
- MIC (S. paratyphi C 33-76; S. paratyphi C 33-76): 0.1 µg/mL
- MIC (S. epidermidis ATCC14990): 6.25 µg/mL
- MIC (S. faecalis IFO3826): > 100 µg/mL
- MIC (S. aureus 209P JC-1; S. aureus 209P JC-1): 0.78 µg/mL
- MIC (E. coli NIHJ JC-2): 0.78 µg/mL
- MIC (S. typhimurium ATCC13311): 0.39 µg/mL
- MIC (P. rettgeri ATCC14505): 0.39 µg/mL
- MIC (S. aureus Smith): 6.25 µg/mL
- MIC (S. paratyphi B; S. paratyphi B): 0.78 µg/mL
- MIC (P. vulgaris ATCC6380): 0.2 µg/mL
- MIC (S. sonnei SH72-415): 0.39 µg/mL
- MIC (P. fluorescens ATCC13525): 3.13 µg/mL
- MIC (S. marcescens IFO12648): 0.39 µg/mL
- MIC (P. cepacia ATCC25416): 6.25 µg/mL
- MIC (P. mirabilis IFO3849): 0.2 µg/mL
- MIC (S. anatum 677-69): 0.78 µg/mL
- MIC (B. subtilis ATCC6633; B. subtilis ATCC6633): 6.25 µg/mL
- MIC [1]: 0.2 µg/mL
- MIC (S. flexneri Y NCTC 9730): 0.39 µg/mL
- MIC (C. freundii IFO12681): 0.39 µg/mL
- MIC (S. typhimurium IFO 12529): 0.78 µg/mL
